# Experimental data taken from US8887721B2, “Attenuation of vasoactive oxygen carrier-induced vasoconstriction” (The General Hospital Corporation, priority 2006, dated 2014).
# Where two headings read alike, the source gives them in different places.
# Experiments:
# awake lambs = type: in vivo, lamb
# Excerpt: Lambs were briefly anesthetized, given a tracheostomy, the internal jugular vein was percutaneously catheterized and a flow directed Swan Ganz catheter passed into the pulmonary artery to permit measurements of central hemodynamics and cardiac output by thermaldilution. An arterial line was placed in the carotid artery. Animals were allowed several hours to awaken from anesthesia and were studied awake and restrained in a harness. Three groups of lambs were studied: (1) “autologous whole blood” animals donated autologous blood, which was stored with heparin anti-coagulation at 4° C.—two days later they received an infusion of their 37° C. autologous whole blood (12 ml/kg over 20 minutes) while breathing at FiO2=0.3 (n=3); (2) “HBOC-201” animals received an infusion of HBOC-201 (12 ml/kg over 20 minutes) while breathing at FiO2=0.3 (n=3); and (3) “HBOC-201 after iNO” animals inhaled 80 ppm nitric oxide at FiO2=0.3 for one hour before receiving an infusion of HBOC-201 (12 ml/kg over 20 minutes) (n=5). Systemic vascular resistance (SVR) and pulmonary vascular resistance (PVR) were calculated using standard formulae as follows: [SVR ([…])=(MAP−CVP)/CO*79.96]; and [PVR ([…])=(PAP−PCWP)/CI*79.96].
# (1) “Autologous whole blood” animals received an infusion of 37° C. autologous whole blood (12 ml/kg over 20 minutes) while breathing at FiO2=0.3 (n=3); (2) “HBOC-201” animals received an infusion of 37° C. HBOC-201 (12 ml/kg over 20 minutes) while breathing at FiO2=0.3 (n=3); and (3) “HBOC-201 after high and low dose iNO” animals inhaled 80 ppm nitric oxide at FiO2=0.3 for one hour before receiving an infusion of HBOC-201 (12 ml/kg over 20 minutes), which was followed by breathing 5 ppm nitric oxide at FiO2=0.3 for two hours, which was followed by breathing at FiO2=0.3 (and discontinued inhalation of nitric oxide gas) for another one hour (n=4).
# awake mice = assay: Tail-cuff systolic blood pressure in awake mice; type: in vivo, mouse; conditions: for tail systolic blood pressure after intravenous injection: awake wild type mice, 0.012 ml/g body weight i.v.
# Method: The mouse was placed in a restrainer for this procedure. All mice were handled briefly and gently to inject a tetrameric hemoglobin solution into a lateral tail vein. Before injection, the tail was warmed under an infra-red heat lamp for 5 minutes to enable access to the vein. The injection volume was 0.012 ml/g body weight for each mouse. Infusion was done during the course of one minute.
# With the use of volumetrically calibrated flowmeters (Cole-Parmer, Vernon Hills, Ill.), nitric oxide gas (800 ppm in nitrogen; INO Therapeutics, Clinton, […], Clinton, N.J.). The nitric oxide, nitrogen dioxide and oxygen (21%) levels were continuously monitored (INOvent delivery system, Datex-Ohmeda, Madison, Wis.).
# (§1) The effects of breathing nitric oxide on systolic tail blood pressure after the infusion of murine tetrameric hemoglobin solution were monitored every 10 minutes for the 1st hour and every 20 minutes for the rest of the experiments. Blood hemoglobin and methemoglobin levels were measured every 15 minutes in the nitric oxide pretreatment group, wherein all mice breathed nitric oxide at 80 ppm for 1 hour before infusion. Hemoglobin and methemoglobin levels in whole blood and plasma were measured in additional mice after the intravenous infusion of tetrameric hemoglobin solution at 10 minutes and 60 minutes while breathing nitric oxide at 8 ppm or 80 ppm throughout the experiment.
# Systolic blood pressure was measured with a non-invasive tail-cuff machine (XBP 1000, Kent Scientific, Torrington, Conn.) in wild type mice and NOS3^−/− mice. Mice were first subjected to one or two practice sessions to acclimate them to the device. The mouse was placed in a restrainer for a short period of time (<1 minute to start), then kept in the restrainer for longer times to acclimate to the device. The degree of acclimatization was judged by the absence of agitation in the device. After a few days of practice sessions, mice were restrained in a commercial mouse restraint device (Kent Scientific, Torrington, Conn.). […]
# All values are expressed as mean±SEM. Data were analyzed using ANOVA. The difference in hemodynamic parameters before and after infusion of murine tetrameric hemoglobin or nitric oxide inhalation was examined by a paired t-test for repeated measurements. P values less than 0.05 were considered significant (as indicated by a * in the figures).
# [1] = tested on: anesthetized wild type and NOS3−/− mice; assay: Invasive hemodynamic measurements in anesthetized mice; type: in vivo, mouse; conditions: for CO (cardiac output) / CVP (central venous pressure) / Ea (arterial elastance) / HR (heart rate) / LVEDP (left ventricular end-diastolic pressure) / LVESP (left ventricular end-systolic pressure) / SVR (systemic vascular resistance) / Tau (time constant of isovolumic relaxation) / dP/dtmax (maximum rate of developed left ventricular pressure) / dP/dtmin (minimum rate of developed left ventricular pressure): mean ± SEM
# Method: To explore the mechanisms by which infusion of tetrameric hemoglobin causes systemic hypertension in awake wild type mice, invasive hemodynamic measurements were performed in anesthetized wild type and NOS3^−/− mice before and three minutes after infusion of murine tetrameric hemoglobin or whole murine blood as a control. Mice were anesthetized with an intraperitoneal injection of ketamine (100 mg/kg) and xylazine (5 mg/kg). Muscle relaxation was obtained by adding pancuronium (5 μg/g) after tracheal intubation. […] Two saline-filled PE-10 catheters were inserted separately via the jugular veins; one for monitoring central venous pressure (CVP) and the other for infusion of whole blood or tetrameric hemoglobin solution. A Millar pressure-volume catheter was inserted retrograde via the right carotid artery into the left ventricle (1.4F, model SPR839, Millar Instruments Inc., Houston, Tex.). After obtaining stable hemodynamic measurements, whole blood (1.44 g Hb/kg) or murine tetrameric Hb solution (0.48 g/kg) was infused through the jugular vein, at a rate of 100 μl/min for 3 min. PVAN software was used to analyze left ventricular pressure-volume loop data (Conductance Technologies Inc., San Antonio, Tex.).
# plasma hemoglobin [2] = target: T1, plasma hemoglobin (Mus musculus, UniProt P01942+P02088); type: in vivo
# T1 construct: The blood was frozen and thawed three times and then centrifuged; from tissue; host or cells: whole blood of wild type C57BL/6 mice (hemolysate, filtered, dialysed, concentrated)
# T1 sequence (P01942 2-142 limits assumed): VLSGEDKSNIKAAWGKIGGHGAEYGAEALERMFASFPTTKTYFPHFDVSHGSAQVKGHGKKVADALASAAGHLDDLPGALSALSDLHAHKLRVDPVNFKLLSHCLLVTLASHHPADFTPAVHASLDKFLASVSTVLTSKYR
# T1 sequence (P02088 2-147 limits assumed): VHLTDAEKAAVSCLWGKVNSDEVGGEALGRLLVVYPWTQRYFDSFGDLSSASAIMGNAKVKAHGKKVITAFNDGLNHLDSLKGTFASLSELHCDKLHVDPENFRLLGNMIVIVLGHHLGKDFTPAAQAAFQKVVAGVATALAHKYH
# Method: Hemoglobin and methemoglobin concentration in whole blood and plasma were determined by the cyanomethemoglobin method measuring OD at 540 nm and 630 nm with a Spectrophotometer-Biomate 3 (Thermoelectron Corporation, Waltham, Mass.).
# as §1
# plasma hemoglobin [3] = target: plasma hemoglobin (Bos taurus, UniProt P01966+P02070); assay: Plasma methemoglobin concentration in awake lambs; type: in vivo, lamb
# plasma hemoglobin (Bos taurus, UniProt P01966+P02070), sequence (P01966 2-142 limits assumed): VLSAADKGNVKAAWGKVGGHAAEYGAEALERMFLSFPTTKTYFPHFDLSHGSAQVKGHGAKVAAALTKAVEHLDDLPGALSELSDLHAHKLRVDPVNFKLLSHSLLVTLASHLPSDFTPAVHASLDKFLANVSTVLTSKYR
# plasma hemoglobin (Bos taurus, UniProt P01966+P02070), sequence (P02070 whole entry): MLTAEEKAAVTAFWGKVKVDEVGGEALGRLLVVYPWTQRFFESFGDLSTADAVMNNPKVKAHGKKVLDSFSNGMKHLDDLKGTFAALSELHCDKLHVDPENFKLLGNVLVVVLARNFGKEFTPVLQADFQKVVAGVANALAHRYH
# Excerpt: Lambs were briefly anesthetized, given a tracheostomy, the internal jugular vein was percutaneously catheterized and a flow directed Swan Ganz catheter passed into the pulmonary artery to permit measurements of central hemodynamics and cardiac output by thermaldilution. An arterial line was placed in the carotid artery. Animals were allowed several hours to awaken from anesthesia and were studied awake and restrained in a harness. […] Systemic vascular resistance (SVR) and pulmonary vascular resistance (PVR) were calculated using standard formulae as follows: [SVR ([…])=(MAP−CVP)/CO*79.96]; and [PVR ([…])=(PAP−PCWP)/CI*79.96].
# Methemoglobin concentration in plasma was measured before and after breathing 80 ppm nitric oxide for one hour (and before and after infusion of autologous whole blood or HBOC-201). […]
# Plasma methemoglobin concentration was measured before and after breathing nitric oxide at various concentrations (and before and after infusion of autologous whole blood or HBOC-201).
# [4] = NOS3−/− mice breathing air, three minutes after infusion
# [5] = WT mice breathing air, three minutes after infusion
# [6] = WT ± iNO: WT mice breathing 80 ppm NO in air for 15 min, NO discontinued, then infusion
# [7] = lambs breathing 80 ppm nitric oxide for one hour before HBOC-201, terminated immediately before infusion
# [8] = lambs: 80 ppm nitric oxide one hour before HBOC-201, then 5 ppm after the infusion
compound,measurement,setting,value
HBOC-201: a chemically cross-linked bovine hemoglobin formulated in a salt solution; Biopure,mean arterial pressure after infusion,awake lambs; in vivo,increase
same,pulmonary arterial pressure after infusion,awake lambs; in vivo,increase
same,pulmonary vascular resistance after infusion,awake lambs; in vivo,increase
same,systemic vascular resistance after infusion,awake lambs; in vivo,increase
Tetrameric Hb: tetrameric hemoglobin solution (4 g/dl) prepared from lysed whole blood of wild type C57BL/6 mice,tail systolic blood pressure after intravenous injection,awake mice,significant increase in systolic blood pressure
same,tail systolic blood pressure after intravenous injection,awake mice; listed as murine tetrameric hemoglobin solution,significant elevation in blood pressure
same,systemic blood pressure after infusion,awake mice; solution containing 14.5% methemoglobin,caused systemic hypertension
same,CO (cardiac output),[1]; [4],9 ± 1 mL/min
same,CVP (central venous pressure),[1]; [4],4 ± 0 mmHg
same,Ea (arterial elastance),[1]; [4],8 ± 1 mmHg/μl
same,HR (heart rate),[1]; [4],553 ± 18 bpm
same,LVEDP (left ventricular end-diastolic pressure),[1]; [4],8 ± 2 mmHg
same,LVESP (left ventricular end-systolic pressure),[1]; [4],117 ± 5 mmHg
same,SVR (systemic vascular resistance),[1]; [4],15 ± 2 dynes*sec/cm^2
same,Tau (time constant of isovolumic relaxation),[1]; [4],6 ± 1 ms
same,dP/dtmax (maximum rate of developed left ventricular pressure),[1]; [4],13736 ± 606 mmHg/s
same,dP/dtmin (minimum rate of developed left ventricular pressure),[1]; [4],−12290 ± 620 mmHg/s
same,CO (cardiac output),[1]; [5],10 ± 1 mL/min
same,CVP (central venous pressure),[1]; [5],3 ± 0 mmHg
same,Ea (arterial elastance),[1]; [5],9 ± 1 mmHg/μl
same,HR (heart rate),[1]; [5],602 ± 12 bpm
same,LVEDP (left ventricular end-diastolic pressure),[1]; [5],12 ± 1 mmHg
same,LVESP (left ventricular end-systolic pressure),[1]; [5],158 ± 5 mmHg
same,SVR (systemic vascular resistance),[1]; [5],16 ± 1 dynes*sec/cm^2
same,Tau (time constant of isovolumic relaxation),[1]; [5],8 ± 1 ms
same,dP/dtmax (maximum rate of developed left ventricular pressure),[1]; [5],12260 ± 750 mmHg/s
same,dP/dtmin (minimum rate of developed left ventricular pressure),[1]; [5],−10110 ± 640 mmHg/s
same,CO (cardiac output),[1]; [6],12 ± 1 mL/min
same,CVP (central venous pressure),[1]; [6],4 ± 0 mmHg
same,Ea (arterial elastance),[1]; [6],5 ± 0 mmHg/μl
same,HR (heart rate),[1]; [6],603 ± 20 bpm
same,LVEDP (left ventricular end-diastolic pressure),[1]; [6],6 ± 1 mmHg
same,LVESP (left ventricular end-systolic pressure),[1]; [6],101 ± 4 mmHg
same,SVR (systemic vascular resistance),[1]; [6],8 ± 1 dynes*sec/cm^2
same,Tau (time constant of isovolumic relaxation),[1]; [6],5 ± 0 ms
same,dP/dtmax (maximum rate of developed left ventricular pressure),[1]; [6],11230 ± 750 mmHg/s
same,dP/dtmin (minimum rate of developed left ventricular pressure),[1]; [6],−10650 ± 430 mmHg/s
same,effect of infusion on invasive hemodynamic parameters,[1]; anesthetized NOS3−/− mice,"did not alter HR, LVESP, LVEDP, CO, dP/dtmax, dP/dtmin, SVR, Ea, τ, or CVP"
same,effect of infusion on invasive hemodynamic parameters,[1]; anesthetized wild type mice,"increased LVESP, LVEDP, SVR, Ea, and τ and decreased CO without affecting dP/dtmax, dP/dtmin, or CVP"
"O=NO [sodium nitrite, Sodium nitrite]",systemic hypertension caused by subsequent infusion of murine tetrameric hemoglobin,"awake mice; awake mice, 48 nmol sodium nitrite i.v. five minutes before hemoglobin (0.48 g/kg)",blocked the systemic hypertension
same,blood pressure before murine tetrameric hemoglobin was infused,"awake mice; awake mice, 48 nmol sodium nitrite via tail vein",did not alter blood pressure
same,plasma methemoglobin level,"plasma hemoglobin [2]; mouse, in vivo",10±2%
[N]=O [nitric oxide],hemoglobin-induced elevation in systolic blood pressure,awake mice; wild type mice breathing 80 ppm nitric oxide continuously before and subsequent to infusion of murine tetrameric hemoglobin solution,prevented a hemoglobin-induced elevation in systolic blood pressure
same,hemoglobin-induced elevation in systolic blood pressure,"awake mice; wild type mice breathing 80 ppm nitric oxide for 15 minutes before infusion, terminated at infusion",prevented a hemoglobin-induced elevation in systolic blood pressure
same,hemoglobin-induced elevation in systolic blood pressure,"awake mice; wild type mice breathing 80 ppm nitric oxide for one hour before infusion, terminated at infusion",prevented a hemoglobin-induced elevation in systolic blood pressure
same,hemoglobin-induced elevation in systolic blood pressure,"awake mice; wild type mice breathing 200 ppm nitric oxide for 7 minutes before infusion, terminated at infusion",prevented a hemoglobin-induced elevation in systolic blood pressure
same,conversion of plasma hemoglobin to methemoglobin,"plasma hemoglobin [2]; wild type mice breathing 80 ppm nitric oxide for one hour before infusion of murine tetrameric hemoglobin solution, terminated at infusion",< 5%
same,conversion of plasma hemoglobin to methemoglobin,"plasma hemoglobin [2]; wild type mice breathing 80 ppm nitric oxide while given murine tetrameric hemoglobin solution, 10 and 60 minutes after injection",conversion of a significant proportion of plasma hemoglobin to inactive methemoglobin
same,"increase of LVESP, LVEDP, SVR, Ea and τ induced by murine tetrameric hemoglobin infusion",[1]; wild type mice pretreated with inhaled nitric oxide at 80 ppm for 15 minutes,"abolished the increase of LVESP, LVEDP, SVR, Ea, and τ"
same,pulmonary hypertension after inhalation of 5 ppm nitric oxide was abruptly discontinued,awake lambs; lambs administered HBOC-201,rebounded
same,increase in mean arterial pressure after HBOC-201 infusion,awake lambs; [7],blocked the increase
same,increase in pulmonary arterial pressure after HBOC-201 infusion,awake lambs; [7],did not block the increase
same,increase in pulmonary vascular resistance after HBOC-201 infusion,awake lambs; [7],did not block the increase
same,increase in systemic vascular resistance after HBOC-201 infusion,awake lambs; [7],blocked the increase
same,increase in mean arterial pressure after HBOC-201 infusion,awake lambs; [8],blocked the increase
same,increase in pulmonary arterial pressure after HBOC-201 infusion,awake lambs; [8],blocked the increase
same,increase in pulmonary vascular resistance after HBOC-201 infusion,awake lambs; [8],blocked the increase
same,increase in systemic vascular resistance after HBOC-201 infusion,awake lambs; [8],blocked the increase
same,plasma methemoglobin compared to lambs that received HBOC-201 without nitric oxide,"plasma hemoglobin [3]; 80 ppm nitric oxide for one hour before HBOC-201, terminated at infusion",did not result in an increase in plasma methemoglobin
same,plasma methemoglobin compared to animals that received HBOC-201 without nitric oxide,"plasma hemoglobin [3]; 80 ppm nitric oxide one hour before HBOC-201, then 5 ppm after the infusion",did not result in an increase in plasma methemoglobin
